Source: patent US12528805B2, “Solid forms of emetine” (Acer Therapeutics, Inc., priority 2020, dated 2026)
Counter-ions that a name gives are not always drawn.

Key:
[1] = Solid form stability on storage (XRPD re-analysis); type: physicochemical; settings: stored at 40° C./75% RH for 22 h
Protocol: The solids were dried under vacuum at ambient temperature (about 23° C.) for 17 h. The solids on the XRPD plate were stored at 40° C./75% RH for 22 h then re-analyzed. Amorphous and a mixture of Compound I dihydrochloride Form 2 and Form 6 were obtained (Table 7).
The solids were isolated by filtration after a total of 27.5 h at 5° C. and washed with 0.6 mL of cold acetone or 3×0.6 mL of cold heptane. The solids were dried under vacuum at ambient temperature (about 23° C.) for 17 h. The solids on the XRPD plate were stored at 40° C./75% RH for 22 h then re-analyzed by XRPD. Results, which are summarized in Table 8, show mixtures of Compound I dihydrochloride Forms 5 and 6, 5, 2 and 1, and 2 were obtained.
1.0 mL of water was added to approximately 300 mg of Compound I dihydrochloride Form 1. The resulting mixture was magnetically stirred at 50° C. over about 15 min, then stirred at 50° C. for 0.25 h. The solution was polish filtered (0.45 μm PTFE filter) into a 2 mL push-cap vial and then stirred at 50° C. for 0.25 h, prior to cooling to 5° C. at 0.1° C./min. After 62 h at 5° C., the experiment was sub-sampled and the solid was analyzed by XRPD. The material on the XRPD plate was dried under vacuum at 35° C. under a stream of wet nitrogen (20-38% RH) for about 9 h and then re-analyzed by XRPD. The material on the XRPD plate was stored at 25° C./60% RH for 22 h and then re-analyzed by XRPD. After a total of 87 h at 5° C., solids were isolated by centrifugation (0.22 μm nylon filter) and analyzed by XRPD. The solids were air-dried at ambient temperature (about 22° C.) for 24 h.
Small-scale crystallization Experiment 7 was sub-sampled prior to ASA and after ASA was complete, with solids isolated by centrifugation (0.22 μm nylon filter) and analyzed by XRPD.
Approximately 10 g of Compound I dihydrochloride Form 1 was dissolved in 67 mL of ethanol:water 99:1 v/v at about 60° C. (initial concentration: 150 mg/mL). Polish filtration was carried out (0.2 μm PTFE filter). The solution was transferred to a 250 mL vessel at 60° C. and stirred at 50° C. (solution temperature) and 300 rpm for about 5 min. The solution was seeded with about 100 mg (1 wt. %) of Compound I dihydrochloride Form 2, isolated from small-scale crystallization Experiments 12 and 13, from example 4 above. The seed dissolved rapidly. Anti-solvent addition of 10 mL of heptane (1 volume) was carried out at 2 vol/h (Heptane content of 13%). The solution was re-seeded with a further 100 mg (1 wt. %) of Form 2, isolated from small-scale crystallization Experiment 12. The seed persisted and a slurry formed. The slurry was stirred at 50° C. for 1 h and then anti-solvent addition of 131 mL of heptane at 1.5 vol/h was carried out, to reach 60% heptane. […] An additional 2 volumes of ethanol:water 99:1 v/v was added at the beginning of the ASA to mobilize the slurry. Once ASA was complete, the slurry was cooled to 5° C. at 0.1° C./min. The experiment was sub-sampled after about 2 h at 5° C. The slurry was thick but mixing. After 3.5 h at 5° C., an additional 3.6 mL of water was added to increase the water content to 2% (ethanol:water:heptane ratio of 39:2:59 v/v/v). The experiment was sub-sampled again after 2 h at 5° C. with additional water. After a total of 10 h at 5° C., solids were isolated by filtration and washed with 2 volumes of cold (5° C.) ethanol:heptane 40:60 v/v. The solids were filtered and dried under vacuum at ambient temperature (about 21° C.) for 14.5 h, then analyzed by XRPD.

[2] = Thermodynamic solubility study (HPLC of mother liquors); type: physicochemical; settings: thermodynamic from solid
Protocol: To obtain accurate solubility and residual solid form data for amorphous Compound I dihydrochloride, thermodynamic solubility studies were carried out on amorphous input material in selected solvent systems at 50° C. and 5° C. (Table 6).

CC[C@H]1CN2CCc3cc(OC)c(OC)cc3[C@@H]2C[C@@H]1C[C@H]1NCCc2cc(OC)c(OC)cc21 [Amorphous Compound I dihydrochloride]
Solid form by XRPD after storage [1]: amorphous Compound I dihydrochloride was obtained
solubility thermodynamic at 23 h ([2]; organic solvent or mixture, 2-propanol:heptane 70:30 v/v, 5° C.): < 10 mg/mL
solubility thermodynamic at 23 h ([2]; organic solvent or mixture, 2-propanol:heptane 70:30 v/v, 50° C.): ~20 mg/mL
solubility thermodynamic at 23 h ([2]; organic solvent or mixture, 2-propanol:heptane 90:10 v/v, 5° C.): 10 to 40 mg/mL
solubility thermodynamic at 23 h ([2]; organic solvent or mixture, 2-propanol:heptane 90:10 v/v, 50° C.): 40 to 115 mg/mL
solubility thermodynamic at 23 h ([2]; organic solvent or mixture, 2-propanol:water 95:5 v/v, 5° C.): 10 to 40 mg/mL
solubility thermodynamic at 23 h ([2]; organic solvent or mixture, 2-propanol:water 95:5 v/v, 50° C.): 40 to 115 mg/mL
solubility thermodynamic at 23 h ([2]; organic solvent or mixture, 2-propanol:water 99:1 v/v, 5° C.): 10 to 40 mg/mL
solubility thermodynamic at 23 h ([2]; organic solvent or mixture, 2-propanol:water 99:1 v/v, 50° C.): 40 to 115 mg/mL
solubility thermodynamic at 23 h ([2]; organic solvent or mixture, 2-propanol, 5° C.): 10 to 40 mg/mL
solubility thermodynamic at 23 h ([2]; organic solvent or mixture, 2-propanol, 50° C., experiment remained unsaturated): > 215 mg/mL
solubility thermodynamic at 23 h ([2]; organic solvent or mixture, acetone:water 60:40 v/v, 5° C., experiment remained unsaturated): > 125 mg/mL
solubility thermodynamic at 23 h ([2]; organic solvent or mixture, acetone:water 60:40 v/v, 50° C., experiment remained unsaturated): > 215 mg/mL
solubility thermodynamic at 23 h ([2]; organic solvent or mixture, acetone:water 70:30 v/v, 5° C., experiment remained unsaturated): > 125 mg/mL
solubility thermodynamic at 23 h ([2]; organic solvent or mixture, acetone:water 70:30 v/v, 50° C., experiment remained unsaturated): > 215 mg/mL
solubility thermodynamic at 23 h ([2]; organic solvent or mixture, acetone:water 90:10 v/v, 5° C.): 10 to 40 mg/mL
solubility thermodynamic at 23 h ([2]; organic solvent or mixture, acetone:water 90:10 v/v, 50° C.): 40 to 115 mg/mL
solubility thermodynamic at 23 h ([2]; organic solvent or mixture, ethanol:heptane 60:40 v/v, 5° C.): < 10 mg/mL
solubility thermodynamic at 23 h ([2]; organic solvent or mixture, ethanol:heptane 60:40 v/v, 50° C.): 40 to 115 mg/mL
solubility thermodynamic at 23 h ([2]; organic solvent or mixture, ethanol:heptane 80:20 v/v, 5° C.): 10 to 40 mg/mL
solubility thermodynamic at 23 h ([2]; organic solvent or mixture, ethanol:heptane 80:20 v/v, 50° C., experiment remained unsaturated): > 215 mg/mL
solubility thermodynamic at 23 h ([2]; organic solvent or mixture, ethanol, 5° C.): 10 to 40 mg/mL
solubility thermodynamic at 23 h ([2]; organic solvent or mixture, ethanol, 50° C., experiment remained unsaturated): > 215 mg/mL
solubility thermodynamic at 23 h ([2]; water, 5° C.): 65 mg/mL
solubility thermodynamic at 23 h ([2]; water, 50° C., experiment remained unsaturated): > 215 mg/mL
